In brackets after ≈: the same amount, converted by molar mass. Activity calls are given as the source filed them. The rule behind the calls is not given here.
What was measured:
Shigella flexneri = assay: Antibacterial activity against Shigella paradysenteriae HH 117 by two-fold agar dilution method; assay type: functional
Salmonella paratyphi = assay: Antibacterial activity against Salmonella paratyphi ATCC 12176 by two-fold agar dilution method; assay type: functional, Salmonella enterica subsp. enterica serovar Paratyphi A; settings: Salmonella enterica
Staphylococcus aureus [1] = assay: Antibacterial activity against Staphylococcus aureus 23390 by two-fold agar dilution method; assay type: functional, organism-based
Klebsiella pneumoniae = assay: Antibacterial activity against Klebsiella pneumoniae 4200 by two-fold agar dilution method; assay type: functional
Escherichia coli [2] = assay: Antibacterial activity against Escherichia coli 12140 by two-fold agar dilution method; assay type: functional
Klebsiella aerogenes = assay: Antibacterial activity against Enterobacter aerogenes ATCC 13048 by two-fold agar dilution method; assay type: functional
Enterococcus faecalis = assay: Antibacterial activity against Streptococcus faecalis by two-fold agar dilution method; assay type: functional
Pseudomonas aeruginosa = assay: Antibacterial activity against Pseudomonas aeruginosa by two-fold agar dilution method; assay type: functional, organism-based
Escherichia coli [3] = assay: Antibacterial activity against Escherichia coli 12140 infected in sc dosed mouse assessed as host protection administered at 1 and 5 hrs post-infection; assay type: functional; settings: Escherichia coli, 12140, sc; read-out: PD50
Staphylococcus aureus [4] = assay: Antibacterial activity against penicillin G-resistant Staphylococcus aureus HH 127 by two-fold agar dilution method; assay type: functional

SMILES	MIC (Shigella flexneri) [µg/mL]	MIC (Salmonella paratyphi) [µg/mL]	Activity (Staphylococcus aureus [1])	MIC (Klebsiella pneumoniae) [µg/mL]	MIC (Escherichia coli [2]) [µg/mL]	MIC (Klebsiella aerogenes) [µg/mL]	MIC (Enterococcus faecalis) [µg/mL]	Activity (Pseudomonas aeruginosa)	ED50 (Escherichia coli [3]) [mg/kg]	MIC (Staphylococcus aureus [4]) [µg/mL]
CC(C(=O)N[C@@H]1C(=O)N2C(C(=O)[O-])=C(CSc3nnnn3C)CS[C@H]12)S(C)(=O)=O.[Na+] (stereo partly drawn)	3.1	6.2	Active	6.2	6.2	13	> 13	inactive	50	3.1
Cc1nnc(SCC2=C(C(=O)[O-])N3C(=O)[C@@H](NC(=O)CS(C)(=O)=O)[C@H]3SC2)[nH]1.[Na+]	13	1.6	Active	3.1	6.2	200	> 13	inactive	10	1.6
CC(=O)OCC1=C(C(=O)[O-])N2C(=O)[C@@H](NC(=O)CS(C)(=O)=O)[C@H]2SC1.[Na+]	13	13	Active	13	13	> 200	> 13	inactive	62	3.1
CC(=O)OCC1=C(C(=O)O)N2C(=O)[C@@H](NC(=O)Cc3cccs3)[C@H]2SC1 [CEPHALOTHIN]	6.2 (≈ 15.6 µM)	1.6 (≈ 4.04 µM)	Active	3.1 (≈ 7.82 µM)	3.1 (≈ 7.82 µM)	50 (≈ 126 µM)	–	–	50	0.2 (≈ 0.504 µM)
CC(=O)OCC1=C(C(=O)O)N2C(=O)[C@@H](NC(=O)CS(=O)(=O)C(F)(F)F)[C@H]2SC1	13 (≈ 29.1 µM)	6.2 (≈ 13.9 µM)	Active	6.2 (≈ 13.9 µM)	6.2 (≈ 13.9 µM)	25 (≈ 56 µM)	> 13	inactive	> 50	6.2 (≈ 13.9 µM)
Cn1nnnc1SCC1=C(C(=O)[O-])N2C(=O)[C@@H](NC(=O)CS(C)(=O)=O)[C@H]2SC1.[Na+]	1.6	0.8	Active	1.6	1.6	25	> 13	inactive	7	1.6
CC(=O)OCC1=C(C(=O)[O-])N2C(=O)[C@@H](NC(=O)CS(N)(=O)=O)[C@H]2SC1.[Na+]	25	13	Active	25	50	200	> 13	inactive	–	1.6
Cn1nnnc1SCC1=C(C(=O)[O-])N2C(=O)[C@@H](NC(=O)CS(=O)(=O)C(F)(F)F)[C@H]2SC1.[Na+]	0.8	1.6	Active	3.1	1.6	3.1	> 13	inactive	17	1.6
Cn1nnnc1SCC1=C(C(=O)O)N2C(=O)[C@@H](NC(=O)CS(=O)(=O)c3ccccc3)[C@H]2SC1	1.6 (≈ 3.13 µM)	6.2 (≈ 12.1 µM)	Active	3.1 (≈ 6.07 µM)	3.1 (≈ 6.07 µM)	13 (≈ 25.5 µM)	> 13	inactive	25	0.4 (≈ 0.783 µM)
CCS(=O)(=O)CC(=O)N[C@@H]1C(=O)N2C(C(=O)O)=C(CSc3nnc(C)s3)CS[C@H]12	6.2 (≈ 13 µM)	1.6 (≈ 3.34 µM)	Active	1.6 (≈ 3.34 µM)	3.1 (≈ 6.48 µM)	100 (≈ 209 µM)	> 13	inactive	8	0.4 (≈ 0.836 µM)
CCCS(=O)(=O)CC(=O)N[C@@H]1C(=O)N2C(C(=O)[O-])=C(CSc3nnc(C)s3)CS[C@H]12.[Na+]	6.2	1.6	Active	3.1	6.2	50	> 13	inactive	25	0.4
CCCCS(=O)(=O)CC(=O)N[C@@H]1C(=O)N2C(C(=O)[O-])=C(CSc3nnc(C)s3)CS[C@H]12.[Na+]	6.2	1.6	Active	6.2	6.2	25	> 13	inactive	> 50	0.1
CCS(=O)(=O)CC(=O)N[C@@H]1C(=O)N2C(C(=O)[O-])=C(COC(C)=O)CS[C@H]12.[Na+]	25	3.1	Active	6.2	25	> 200	> 13	inactive	70	0.8
CS(=O)(=O)CC(=O)N[C@@H]1C(=O)N2C(C(=O)[O-])=C(CSc3nnn[nH]3)CS[C@H]12.[Na+]	25	3.1	Active	3.1	50	> 200	> 13	inactive	45	6.2
Cc1nnc(SCC2=C(C(=O)O)N3C(=O)[C@@H](NC(=O)Cn4cnnn4)[C@H]3SC2)s1 [CEFAZOLIN]	0.4 (≈ 0.88 µM)	0.8 (≈ 1.76 µM)	Active	0.8 (≈ 1.76 µM)	0.8 (≈ 1.76 µM)	1.6 (≈ 3.52 µM)	–	–	6	0.4 (≈ 0.88 µM)
CC(=O)OCC1=C(C(=O)[O-])N2C(=O)[C@@H](NC(=O)C(C)S(C)(=O)=O)[C@H]2SC1.[Na+] (stereo partly drawn)	25	13	Active	3.1	25	50	> 13	inactive	–	3.1
CCCS(=O)(=O)CC(=O)N[C@@H]1C(=O)N2C(C(=O)O)=C(COC(C)=O)CS[C@H]12	13 (≈ 30.9 µM)	3.1 (≈ 7.37 µM)	Active	6.2 (≈ 14.7 µM)	13 (≈ 30.9 µM)	200 (≈ 476 µM)	> 13	inactive	56	0.8 (≈ 1.9 µM)
CCCS(=O)(=O)CC(=O)N[C@@H]1C(=O)N2C(C(=O)[O-])=C(CSc3nnnn3C)CS[C@H]12.[Na+]	1.6	0.4	Active	0.8	1.6	6.2	> 13	inactive	10	0.4
Cc1nnc(SCC2=C(C(=O)[O-])N3C(=O)[C@@H](NC(=O)CS(C)(=O)=O)[C@H]3SC2)s1.[Na+]	13	3.1	Active	3.1	13	> 200	> 13	inactive	–	1.6
CS(=O)(=O)CC(=O)N[C@@H]1C(=O)N2C(C(=O)[O-])=C(CSc3cnn[nH]3)CS[C@H]12.[Na+]	13	6.2	Active	6.2	13	> 200	> 13	inactive	–	1.6
CC(=O)OCC1=C(C(=O)[O-])N2C(=O)[C@@H](NC(=O)CS(=O)(=O)c3ccccc3)[C@H]2SC1.[Na+]	25	13	Active	13	50	> 200	> 13	inactive	–	1.6
CCCCS(=O)(=O)CC(=O)N[C@@H]1C(=O)N2C(C(=O)O)=C(COC(C)=O)CS[C@H]12	6.2 (≈ 14.3 µM)	3.1 (≈ 7.13 µM)	Active	13 (≈ 29.9 µM)	13 (≈ 29.9 µM)	50 (≈ 115 µM)	> 13	inactive	180	0.2 (≈ 0.46 µM)
CCS(=O)(=O)CC(=O)N[C@@H]1C(=O)N2C(C(=O)[O-])=C(CSc3nnnn3C)CS[C@H]12.[Na+]	1.6	0.8	Active	1.6	1.6	100	> 13	inactive	7	0.8
Cn1cnnc1SCC1=C(C(=O)[O-])N2C(=O)[C@@H](NC(=O)CS(C)(=O)=O)[C@H]2SC1.[Na+]	–	3.1	Active	6.2	6.2	> 200	> 13	inactive	22	3.1
Cn1nnnc1SCC1=C(C(=O)O)N2C(=O)[C@@H](NC(=O)CSC(F)(F)F)[C@H]2SC1 [CEFAZAFLUR]	0.2 (≈ 0.425 µM)	0.4 (≈ 0.85 µM)	Active	0.8 (≈ 1.7 µM)	0.4 (≈ 0.85 µM)	1.6 (≈ 3.4 µM)	–	–	2	0.4 (≈ 0.85 µM)
Cn1nnnc1SCC1=C(C(=O)[O-])N2C(=O)[C@@H](NC(=O)CS(N)(=O)=O)[C@H]2SC1.[Na+]	3.1	1.6	Active	13	3.1	13	> 13	inactive	38	1.6
CCCCS(=O)(=O)CC(=O)N[C@@H]1C(=O)N2C(C(=O)[O-])=C(CSc3nnnn3C)CS[C@H]12.[Na+]	3.1	1.6	Active	3.1	3.1	13	> 13	inactive	21	0.4

— ChEMBL document CHEMBL3272096, “Semisynthetic cephalosporins. Synthesis and structure-activity relationships of 7-sulfonylacetamido-3-cephem-4-carboxylic acids” (1976)
